# Laboratory results as given in patent publication US9157905B2, “Method for identifying oncogene, method for establishing oncogene-expressing cell, and method of screening oncogene targeting drug” (FUJIREBIO INC., priority 2010, dated 2015).
# Columns and labels:
# [1] = tested on: PC-9 cells; assay: MTS assay of living cells, PC-9 cells cultured 72 hours with drug; type: cell-based, human; conditions: gefitinib at various concentrations, FIG. 5
# Procedure: (§1) PC-9 cells or cells obtained by introducing the oncogene, the PDGFRα V561D gene into PC-9 cells in Example 4 were seeded in a 96-well plate. The cells were cultured for 72 hours in medium containing gefitinib at various concentrations, and then living cells were quantified by an MTS assay.
# [2] = tested on: PDGFRα V561D gene-introduced cells (PC-9); assay: MTS assay of living cells, PDGFRα V561D gene-introduced PC-9 cells cultured 72 hours with drug; type: cell-based, human
# Procedure: as §1
# The cells obtained by introducing the PDGFRα V561D gene into PC-9 cells in Example 4 were seeded in a 96-well plate. The cells were cultured in medium containing a PDGFRα inhibitor, imatinib at various concentrations or medium containing 1 μM gefitinib and imatinib at various concentrations for 72 hours, and then living cells were quantified by the MTS assay.
Structure (SMILES),proliferation of PC-9 cells [1],"proliferation of the PDGFRα V561D gene-introduced cells ([2]; gefitinib at various concentrations, FIG. 5)","proliferation of the PDGFRα V561D gene-introduced cells ([2]; in the presence of 1 μM gefitinib (medium with imatinib at various concentrations), FIG. 6)","proliferation of the PDGFRα V561D gene-introduced cells ([2]; imatinib at various concentrations in the presence of 1 μM gefitinib, FIG. 6)"
COc1cc2ncnc(Nc3ccc(F)c(Cl)c3)c2cc1OCCCN1CCOCC1 [gefitinib],inhibited by gefitinib in a dose dependent manner,not inhibited,inhibited in the presence of 1 μM gefitinib,–
Cc1ccc(NC(=O)c2ccc(CN3CCN(C)CC3)cc2)cc1Nc1nccc(-c2cccnc2)n1 [imatinib],–,–,–,"inhibited by the PDGFRα inhibitor, imatinib in a dose dependent manner"
